Publication PMC7612441 (The Febs Journal, 2021)

Legend:
NUDT9 = target: T1, NUDT9 (Homo sapiens, UniProt Q9BW91); assay: isothermal titration calorimetry, one-site fit; assay type: binding; conditions: Ca2+ (5 mM CaCl2) as cofactor, no hydrolysis; 20 mM HEPES pH 7.5, 150 mM NaCl, 20 °C
T1 sequence (Q9BW91 59-350): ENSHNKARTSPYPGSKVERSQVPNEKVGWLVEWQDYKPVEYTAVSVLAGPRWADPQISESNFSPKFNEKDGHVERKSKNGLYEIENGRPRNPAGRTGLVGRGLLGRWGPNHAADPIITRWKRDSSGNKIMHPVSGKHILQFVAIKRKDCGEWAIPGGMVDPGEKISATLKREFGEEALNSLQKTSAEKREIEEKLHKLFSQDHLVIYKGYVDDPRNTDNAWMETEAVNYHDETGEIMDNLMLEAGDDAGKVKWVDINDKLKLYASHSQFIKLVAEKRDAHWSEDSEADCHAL

NUDT9trC RIL = target: T2, NUDT9trC RIL (Homo sapiens, UniProt Q9BW91, E230I/F231L); assay: isothermal titration calorimetry, one-site fit; assay type: binding; conditions: Mg2+ (5 mM MgCl2) as cofactor; 20 mM HEPES pH 7.5, 150 mM NaCl, 20 °C; catalytically inactive mutant
T2 sequence (Q9BW91 59-339 E230I/F231L): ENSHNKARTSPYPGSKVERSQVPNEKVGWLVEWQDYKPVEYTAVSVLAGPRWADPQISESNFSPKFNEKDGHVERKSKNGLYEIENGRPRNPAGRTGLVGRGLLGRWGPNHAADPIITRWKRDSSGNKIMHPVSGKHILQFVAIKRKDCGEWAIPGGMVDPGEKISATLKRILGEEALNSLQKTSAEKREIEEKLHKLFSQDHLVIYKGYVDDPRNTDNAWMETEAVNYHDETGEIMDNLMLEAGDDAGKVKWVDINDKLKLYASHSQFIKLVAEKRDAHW

Nc1ncnc2c1ncn2[C@H]1C[C@H](O)[C@@H](COP(=O)(O)OP(=O)(O)OC[C@H]2OC(O)[C@H](O)[C@@H]2O)O1 (stereo partly shown) [2′‐deoxy‐ADPR]
Kd (NUDT9): 9 ± 2 nM
Kd (NUDT9trC RIL): 12 ± 7 nM

Nc1ncnc2c1ncn2[C@@H]1O[C@H](COP(=O)(O)OP(=O)(O)OC[C@H]2OC(O)[C@H](O)[C@@H]2O)[C@@H](O)[C@H]1O (stereo partly shown) [ADPR]
Kd (NUDT9): 12 ± 4 nM
Kd (NUDT9trC RIL): 16 ± 4 nM
